Laboratory results as given in PMC10216478, “Development of a Non-Peptide Angiotensin II Type 1 Receptor Ligand by Structural Modification of Olmesartan as a Biased Agonist” (Biomedicines, 2023).
Changes are numbered by the printed parent chain.

Assays:
AT1 receptor = tested on: AT1 receptor; parameters: method as in PMID 15785012; conditions: cited from earlier work
[1] = tested on: human coronary artery smooth muscle cells; parameters: method as in PMID 15785012; conditions: as well as a stably expressed AT1 receptor cell line; cited from earlier work
AT1 L112A receptor [2] = biological target: T1, AT1 L112A receptor (Rattus norvegicus, UniProt P25095, L112A); experiment: IP production assay in COS7 cells expressing AT1-L112A receptor; assay type: cell-based; conditions: 1 µM ligands or 0.1 µM Ang II, 30 min, n = 5, vs. (-)
T1 construct: expressed in transfected cells; host or cells: COS7
T1 sequence (P25095 1-359 L112A): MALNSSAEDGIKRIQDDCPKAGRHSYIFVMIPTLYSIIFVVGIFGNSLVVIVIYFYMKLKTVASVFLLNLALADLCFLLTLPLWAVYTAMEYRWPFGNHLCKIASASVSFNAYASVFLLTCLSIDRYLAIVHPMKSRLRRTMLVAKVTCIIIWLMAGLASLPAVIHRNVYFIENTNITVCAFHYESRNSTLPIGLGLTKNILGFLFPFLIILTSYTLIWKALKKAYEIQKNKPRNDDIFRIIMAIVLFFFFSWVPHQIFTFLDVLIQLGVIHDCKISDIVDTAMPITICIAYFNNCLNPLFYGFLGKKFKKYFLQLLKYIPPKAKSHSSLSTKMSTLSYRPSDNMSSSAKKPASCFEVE
Description: (§1) The synthetic rat AT1 receptor gene, which was cloned in the shuttle expression vector pMT-2, was used for expression and mutagenesis, as described previously. […] In the experiments, cells were grown without a cell-growth supplement. To express the AT1 receptor protein, 10 µg of purified plasmid DNA per 10^7 cells was used in the transfection. Wild-type and mutated AT1 receptors were transiently transfected into cells using Lipofectamine 2000 liposomal reagent (Roche Applied Science, Penzberg, Germany). Cells were plated and grown and were 70–90% confluent at the time of transfection. We incubated plasmid DNA (10 µg)–lipid (10 µL) complexes for 5 min at room temperature and added and incubated the complexes with cells for 24 h. We then analyzed the parameters in transfected cells. […] Transfected cells that had been cultured for 48–72 h were harvested. Cell membranes were prepared using the nitrogen Parr bomb disruption or freeze–thaw methods.
(§2) Ligand (such as agonist or antagonist)-induced IP production through the AT1 receptor in transfected COS7 cells transiently expressing the AT1 receptor was measured to evaluate cell signaling as a second messenger for controlling blood pressure, since the increases in the intracellular Ca^2+ concentration were the result of IP accumulation, which indicated vasoconstriction. As a surrogate model with higher levels of AT1 receptor expression, COS7 cells are suitable for IP measurement because it is easy to detect differences in IP production. Cells were labeled for 24 h with [^3H]-myoinositol at 37 °C in DMEM containing 10% FBS. Next, the cells were washed with buffer 3 times and incubated with a medium containing 10 mM LiCl for 20 min; 0.1 µM Ang II or 1 µM ligands were added and incubation was continued for another 30 min at 37 °C. After incubation, the medium was removed, and total soluble IP was extracted from the cells using the perchloric acid extraction method, as described previously. Cells were plated at a field density of 5 × 10^3 cells/cm^2 in 60 mm dishes and cultured in a fresh growth medium at 37 °C in a DMEM 5% CO2 incubator. […] The culture medium was changed 48 h after transfection and 1.5 mL of 1 μCi/mL of [^3H]-myoinositol was added to each 60-mm dish at 37 °C in DMEM containing 10% FBS. After labeling, the cells were washed with buffer 3 times and incubated with a medium containing 10 mM LiCl for 20 min. The indicated concentration of ligands was added and incubation was continued for an additional 30 min at 37 °C. After incubation, the medium was removed, and total soluble IP was extracted from the cells using the perchloric acid extraction method. Total IP production was expressed as the sum of radioactivity, as described previously.

AT1 wild-type receptor [3] = biological target: T2, AT1 wild-type receptor (Rattus norvegicus, UniProt P25095); experiment: Immunoblotting of ERK 1/2 activation in COS7 cells overexpressing AT1 wild-type receptor; assay type: cell-based; conditions: AT1 wild-type receptor, COS7 cells; 1 µM ligands or 0.1 µM Ang II, 10 min; n = 5; vs. (-)
T2 construct: expressed in transfected cells; host or cells: COS7
T2 sequence (P25095 1-359): T1 sequence (P25095 1-359 L112A) with A112L
Description: as §1
(§3) In in vitro studies, ERK 1/2 activation by 1 µM ligands or 0.1 µM Ang II incubated for 10 min was measured using COS7 cells that overexpressed AT1 wild-type and mutant receptors. ERK activity was measured in cells maintained for 18 h in DMEM containing 0.1% serum. At the end of the stimulation, the culture medium was removed by aspiration, the cells were washed with ice-cold phosphate-buffered saline, and the dishes were frozen in liquid nitrogen. The cells were scraped using a scraper after melting, and the scraped cells were transferred to a tube. We homogenized the cells in lysis buffer plus protease inhibitors and determined the protein concentration using the bicinchoninic acid method. […] We fractionated total proteins using sodium dodecyl sulfate polyacrylamide gel electrophoresis; we then transferred the proteins to a Hybond nitrocellulose membrane and blocked the blotted membranes with 10% bovine serum albumin in tris-buffered saline buffer (50 mM Tris–HCl pH 7.6, 150 mM NaCl) for 1 h at room temperature. […] An enhanced chemiluminescent substrate system (Amersham, Buckinghamshire, UK) was used. The signal was independently quantified by digital image analysis (ImageJ, National Institutes of Health, Bethesda, MD, USA).

AT1 Q257A receptor [4] = biological target: T3, AT1 Q257A receptor (Rattus norvegicus, UniProt P25095, Q257A); experiment: Immunoblotting of ERK 1/2 activation in COS7 cells overexpressing AT1-Q257A receptor; assay type: cell-based; conditions: 1 µM ligands or 0.1 µM Ang II, 10 min, n = 5, vs. (-)
T3 construct: expressed in transfected cells; host or cells: COS7
T3 sequence (P25095 1-359 Q257A): T1 sequence (P25095 1-359 L112A) with A112L, Q257A
Description: as §1, with “Cell membranes were prepared using the nitrogen Parr bomb disruption or freeze–thaw methods.” left out
In in vitro studies, ERK 1/2 activation by 1 µM ligands or 0.1 µM Ang II incubated for 10 min was measured using COS7 cells that overexpressed AT1 wild-type and mutant receptors. ERK activity was measured in cells maintained for 18 h in DMEM containing 0.1% serum. […] We homogenized the cells in lysis buffer plus protease inhibitors and determined the protein concentration using the bicinchoninic acid method. […] The signal was independently quantified by digital image analysis (ImageJ, National Institutes of Health, Bethesda, MD, USA).

AT1 Q257A receptor [5] = biological target: T3, AT1 Q257A receptor; experiment: IP production assay in COS7 cells expressing AT1-Q257A receptor; assay type: cell-based; conditions: 1 µM ligands or 0.1 µM Ang II, 30 min, n = 5, vs. (-)
Description: as §1, §2

AT1 L112A receptor [6] = biological target: T1, AT1 L112A receptor; experiment: Immunoblotting of ERK 1/2 activation in COS7 cells overexpressing AT1-L112A receptor; assay type: cell-based; conditions: 1 µM ligands or 0.1 µM Ang II, 10 min, n = 5, vs. (-)
Description: as §1, §3

AT1 wild-type receptor [7] = biological target: T2, AT1 wild-type receptor; experiment: IP production assay in COS7 cells expressing AT1 wild-type receptor; assay type: cell-based; conditions: AT1 wild-type receptor, COS7 cells; 1 µM ligands or 0.1 µM Ang II, 30 min; n = 5; vs. (-)
Description: as §1, §2

Substance	Gq-dependent inositol phosphate (IP) production (AT1 receptor)	Gq-independent ERK 1/2 activation [1]	Effect on IP production (AT1 L112A receptor [2])	ERK1/2 activation (AT1 wild-type receptor [3])	ERK1/2 activation (AT1 Q257A receptor [4])	Effect on IP production (AT1 Q257A receptor [5])	ERK1/2 activation (AT1 L112A receptor [6])	Effect on IP production (AT1 wild-type receptor [7])
[Sar^1, Ile^4, Ile^8]Ang II	did not increase	still activated	–	–	–	–	–	–
angiotensin II [Ang II, reference compound]	–	–	significantly increased IP production	significantly activated ERK1/2	significantly activated ERK1/2	significantly increased IP production	significantly activated ERK1/2	significantly increased IP production
